Test results as given in patent US11840528B2 (Hoffmann-La Roche Inc., priority 2018, dated 2023).

Assays:
[1] = molecular target: T1, h-GABA-A α5β3γ2 (Homo sapiens, UniProt P18507+P31644); experiment: [3H]flumazenil competition binding assay, membranes of HEK293 cells expressing GABAA receptors
How it was run: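 Membranes from HEK293 cells transiently expressing human α5β3γ2 GABAA receptors, in Krebs-tris buffer pH 7.5, competed against [3H]flumazenil for 1 hour at 4° C to equilibrium. Bound radioactivity collected on GF/C filters and counted by liquid scintillation; Ki values are means of two determinations.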

[2] = molecular target: T1, h-GABA-A α5β3γ2; experiment: Two-electrode voltage clamp electrophysiology in Xenopus laevis oocytes expressing GABAA receptors, modulation of GABA EC20 current; format: cell-based; parameters: host or cells: Xenopus laevis oocytes micro-injected with RNA transcripts of the subunits
How it was run: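 Human α5β3γ2 GABAA receptors were expressed in Xenopus oocytes by RNA injection, with γ2 RNA 5–10-fold higher, and recorded 3–5 days later by two-electrode voltage clamp at −80 mV at room temperature. The test compound, at about 30× its Ki, was co-applied during a second GABA EC20 pulse. Efficacy is the extremum of the point-by-point ratio to the first response, expressed as 100*(Fold increase−1).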

[3] = displacement of [3H]-Flumazenil 0.5 nM, HEK293 cells expressing human receptors, mean of two determinations, Table 1
[4] = % modulation of GABA EC20 = 100*(Fold increase-1), Table 1
[5] = test compound at approx. 30 fold its Ki, GABA at EC20, Table 1

Ki [1, 3]	Efficacy (GABA) % [2, 4]	Fold increase h-GABA-A α5β3γ2 oocyte [2, 5]	Ki ([1]; reference compounds, Table 2)	Efficacy (GABA) % ([2]; reference compounds, % modulation of GABA EC20, Table 2)	Fold increase h-GABA-A α5β3γ2 oocyte ([2]; reference compounds, Table 2)	Structure (SMILES)
37.4 nM	160%	2.6	–	–	–	Cc1ccc(-c2noc(C)c2Cn2ncc(N3CC(Oc4ccc(C)nn4)C3)cc2=O)cn1 [Example 186, 2-[[5-methyl-3-(6-methyl-3-pyridyl)isoxazol-4-yl]methyl]-5-[3-(6-methylpyridazin-3-yl)oxyazetidin-1-yl]pyridazin-3-one]
45.1 nM	127%	2.27	–	–	–	Cc1onc(-c2ccc(Cl)nc2)c1Cn1ncc(N2CC3(C[C@@H](F)CO3)C2)cc1=O [Example 230, (R)-2-((3-(6-chloropyridin-3-yl)-5-methylisoxazol-4-yl)methyl)-5-(7-fluoro-5-oxa-2-azaspiro[3.4]octan-2-yl)pyridazin-3(2H)-one]
4.9 nM	68%	1.68	–	–	–	Cc1ccc(-c2noc(C)c2Cn2ncc(N3CC4(CC(C)CCO4)C3)cc2=O)nn1 (single isomer, unassigned) [Example 317]
3.3 nM	46%	1.46	–	–	–	Cc1onc(-c2ncc(C(F)(F)F)cn2)c1Cn1ncc(N2CC3(C2)CC(F)(F)CO3)cc1=O [Example 250, 5-(7,7-difluoro-5-oxa-2-azaspiro[3.4]octan-2-yl)-2-((5-methyl-3-(5-(trifluoromethyl)pyrimidin-2-yl)isoxazol-4-yl)methyl)pyridazin-3(2H)-one]
39 nM	105%	2.05	–	–	–	Cc1cc(-c2noc(C)c2Cn2ncc(N3CC4(C3)CN(C3CC3)C4)cc2=O)no1 [Example 87, 5-(2-cyclopropyl-2,6-diazaspiro[3.3]heptan-6-yl)-2-[[5-methyl-3-(5-methylisoxazol-3-yl)isoxazol-4-yl]methyl]pyridazin-3-one]
12 nM	148%	2.48	–	–	–	Cc1ccc(-c2noc(C)c2Cn2ncc(N3CC(Oc4ccccn4)C3)cc2=O)cn1 [Example 124, 2-[[5-methyl-3-(6-methyl-3-pyridyl)isoxazol-4-yl]methyl]-5-[3-(2-pyridyloxy)azetidin-1-yl]pyridazin-3-one]
8.6 nM	145%	2.45	–	–	–	Cc1ccc(-c2noc(C)c2Cn2ncc(N3CC[C@H](O)C3)cc2=O)cn1 [Example 4, 5-[(3S)-3-hydroxypyrrolidin-1-yl]-2-[[5-methyl-3-(6-methyl-3-pyridyl)isoxazol-4-yl]methyl]pyridazin-3-one]
2.6 nM	65%	1.65	–	–	–	Cc1onc(-c2ncc(C(F)(F)F)cn2)c1Cn1ncc(N2CC3(CCC(F)CO3)C2)cc1=O (single isomer, unassigned) [Example 332]
9.2 nM	210%	3.1	–	–	–	Cc1ccc(-c2noc(C)c2Cn2ncc(N3CCC(C)(O)C3)cc2=O)cn1 (stereo not drawn) [Example 118, 5-(3-hydroxy-3-methylpyrrolidin-1-yl)-2-((5-methyl-3-(6-methylpyridin-3-yl)isoxazol-4-yl)methyl)pyridazin-3(2H)-one]
26.2 nM	155%	2.55	–	–	–	CC(=O)N(C)[C@@H]1CCN(c2cnn(Cc3c(-c4ccc(C)nc4)noc3C)c(=O)c2)C1 [Example 2, N-methyl-N-[(3R)-1-[1-[[5-methyl-3-(6-methyl-3-pyridyl)isoxazol-4-yl]methyl]-6-oxo-pyridazin-4-yl]pyrrolidin-3-yl]acetamide]
4.2 nM	86%	1.86	–	–	–	COC1CN(c2cnn(Cc3c(-c4ccc(Cl)nn4)noc3C)c(=O)c2)C1 [Example 252, 2-((3-(6-chloropyridazin-3-yl)-5-methylisoxazol-4-yl)methyl)-5-(3-methoxyazetidin-1-yl)pyridazin-3(2H)-one]
28.2 nM	180%	2.8	–	–	–	Cc1ccc(-c2noc(C)c2Cn2ncc(-c3cc(F)cnc3Cl)cc2=O)cn1 [Example 189, 5-(2-chloro-5-fluoro-3-pyridyl)-2-((5-methyl-3-(6-methyl-3-pyridyl)isoxazol-4-yl)methyl)pyridazin-3-one]
3.2 nM	20%	1.2	–	–	–	Cc1onc(-c2ccc(Cl)cn2)c1Cn1ncc(N2CC3(CCCO3)C2)cc1=O [Example 144, 2-((3-(5-Chloropyridin-2-yl)-5-methylisoxazol-4-yl)methyl)-5-(5-oxa-2-azaspiro[3.4]octan-2-yl)pyridazin-3(2H)-one]
3.3 nM	112%	2.12	–	–	–	CO[C@H]1CN(c2cnn(Cc3c(-c4ccc(Cl)nc4)noc3C)c(=O)c2)[C@H]1C [Example 286, 2-((3-(6-chloropyridin-3-yl)-5-methylisoxazol-4-yl)methyl)-5-((2S,3S)-3-methoxy-2-methylazetidin-1-yl)pyridazin-3(2H)-one]
9.8 nM	152%	2.52	–	–	–	Cc1onc(-c2ncc(Cl)cc2F)c1Cn1ncc(N2CCN(C(=O)C3(C)CC3)CC2)cc1=O [Example 53, 2-[[3-(5-chloro-3-fluoro-2-pyridyl)-5-methyl-isoxazol-4-yl]methyl]-5-[4-(1-methylcyclopropanecarbonyl)piperazin-1-yl]pyridazin-3-one]
3.4 nM	130%	2.3	–	–	–	Cc1ccc(-c2noc(C)c2Cn2ncc(N3CC4(C[C@H](OC(F)F)CO4)C3)cc2=O)nn1 [Example 246, 5-[(7S)-7-(difluoromethoxy)-5-oxa-2-azaspiro[3.4]octan-2-yl]-2-[[5-methyl-3-(6-methylpyridazin-3-yl)isoxazol-4-yl]methyl]pyridazin-3-one]
25.3 nM	118%	2.18	–	–	–	CCOC1CN(c2cnn(Cc3c(-c4ccc(Cl)nc4)noc3C)c(=O)c2)C1 [Example 220, 2-((3-(6-chloropyridin-3-yl)-5-methyl-1,2-oxazol-4-yl)methyl)-5-(3-ethoxyazetidin-1-yl)pyridazin-3-one]
26.4 nM	168%	2.68	–	–	–	CCOC(=O)C1CCN(c2cnn(Cc3c(-c4ccc(C)nc4)noc3C)c(=O)c2)CC1 [Example 8, ethyl 1-(1-((5-methyl-3-(6-methylpyridin-3-yl)-1,2-oxazol-4-yl)methyl)-6-oxopyridazin-4-yl)piperidine-4-carboxylate]
1.8 nM	131%	2.31	–	–	–	CCO[C@H]1CN(c2cnn(Cc3c(-c4ccc(C)nc4)noc3C)c(=O)c2)[C@H]1C [Example 198, 5-[(2S,3S)-3-ethoxy-2-methyl-azetidin-1-yl]-2-[[5-methyl-3-(6-methyl-3-pyridyl)isoxazol-4-yl]methyl]pyridazin-3-one]
58.7 nM	164%	2.64	–	–	–	Cc1ccc(-c2noc(CF)c2Cn2ncc(N3CC4(CCC(F)CO4)C3)cc2=O)nn1 (single isomer, unassigned) [Example 329]
7.4 nM	43%	1.43	–	–	–	COC1CN(c2cnn(Cc3c(-c4ccc(Cl)cc4)noc3C)c(=O)c2)C1 [Example 160, 2-[[3-(4-chlorophenyl)-5-methyl-isoxazol-4-yl]methyl]-5-(3-methoxyazetidin-1-yl)pyridazin-3-one]
3.8 nM	77%	1.77	–	–	–	Cc1ccc(-c2noc(C)c2Cn2ncc(N3CC4(CC(F)CCO4)C3)cc2=O)nn1 (single isomer, unassigned) [Example 287]
3.3 nM	182%	2.82	–	–	–	Cc1ccc(-c2noc(C)c2Cn2ncc(N3CCN[C@@H](C)C3)cc2=O)cn1 [Example 51, 2-[[5-methyl-3-(6-methyl-3-pyridyl)isoxazol-4-yl]methyl]-5-[(3S)-3-methylpiperazin-1-yl]pyridazin-3-one]
–	–	–	26 nM	−16%	0.84	Cc1onc(-c2ccccc2)c1COc1ccc(C(=O)N2CCOCC2)nn1 [RO-096, reference compound]
35.8 nM	136%	2.36	–	–	–	Cc1onc(-c2ccc(Cl)nc2)c1Cn1ncc(N2CC(OC(C)C(F)(F)F)C2)cc1=O (single isomer, unassigned) [Example 266]
11.1 nM	120%	2.2	–	–	–	Cc1ccc(-c2noc(C)c2Cn2ncc(N3CC(Oc4ccccc4F)C3)cc2=O)cn1 [Example 128, 5-[3-(2-fluorophenoxy)azetidin-1-yl]-2-[[5-methyl-3-(6-methyl-3-pyridyl)isoxazol-4-yl]methyl]pyridazin-3-one]

Structure (SMILES)	Ki [1, 3]	Efficacy (GABA) % [2, 4]	Fold increase h-GABA-A α5β3γ2 oocyte [2, 5]	Ki ([1]; reference compounds, Table 2)	Efficacy (GABA) % ([2]; reference compounds, % modulation of GABA EC20, Table 2)	Fold increase h-GABA-A α5β3γ2 oocyte ([2]; reference compounds, Table 2)
Cc1ccc(-c2noc(C)c2Cn2ncc(N3C4CCC3COC4)cc2=O)cn1 [Example 35, 2-[[5-methyl-3-(6-methyl-3-pyridyl)isoxazol-4-yl]methyl]-5-(3-oxa-8-azabicyclo[3.2.1]octan-8-yl)pyridazin-3-one]	0.8 nM	179%	2.79	–	–	–
